# According to patent US20120270851A1, “USE OF […] THE TREATMENT OR PREVENTION OF MALARIA” (SANOFI, priority 2009, published 2012):
# Like-named read-outs stand apart in the source and are kept apart here.
# Experiments:
# [1] = tested on: P. vivax; conditions: read-out: EC50 (effective concentration 50); blood isolates of P. vivax from patients, north-west Thailand; FIG. 1
# Procedure: (§1) In Vitro Evaluation of the Efficacy of Ferroquine Versus Other Reference Antimalaria Agents, on Blood Isolates Infected with P. vivax
# (§2) The test that follows is performed on 110 isolates of P. vivax, collected in the north-west of Thailand (Tak province) on consenting patients, infected with P. vivax and in the acute phase of the infection, who came for consultation at the Shoklo Malaria Research Unit (SMRU).
# (§3) The samples are collected 5 hours after their arrival and placed in 5 ml heparinized tubes, at room temperature.
# (§4) The platelets and leukocytes are removed from these isolates, by analogy with the method described in Kanlaya et al., Malaria Journal, 2009, 8:115.
# [2] = tested on: P. vivax; conditions: FIG. 2
# Procedure: as §1, §2, §3, §4
# Russell, B. et al. 2008, Antimicrob. Agents Chemother. 52:1040-5.
substance,measurement,setting,value
ferroquine,EC50,[1],~6 nM
same,IC50,"[2]; read-out: IC50 (inhibitory concentration 50), mature trophozoite stage, mature trophozoite stage of P. vivax",21 nM
same,IC50,"[2]; read-out: IC50 (inhibitory concentration 50), ring stage, young immature trophozoites (ring stage) of P. vivax",14 nM
